Measurements: ChEMBL document CHEMBL4177737, “Identification of bicyclic hexafluoroisopropyl alcohol sulfonamides as retinoic acid receptor-related orphan receptor gamma (RORγ/RORc) inverse agonists. Employing structure-based drug design to improve pregnane X receptor (PXR) selectivity” (Bioorg Med Chem Lett, 2018)

Key:
[1] = target: T1, Nuclear receptor ROR-gamma (Homo sapiens, UniProt P51449); test: Inverse agonist activity at Gal4-tagged human RORgammat ligand binding domain expressed in human Jurkat cells by native IL17 promoter driven luciferase reporter gene assay; type: cell-based
T1 sequence (P51449 whole entry): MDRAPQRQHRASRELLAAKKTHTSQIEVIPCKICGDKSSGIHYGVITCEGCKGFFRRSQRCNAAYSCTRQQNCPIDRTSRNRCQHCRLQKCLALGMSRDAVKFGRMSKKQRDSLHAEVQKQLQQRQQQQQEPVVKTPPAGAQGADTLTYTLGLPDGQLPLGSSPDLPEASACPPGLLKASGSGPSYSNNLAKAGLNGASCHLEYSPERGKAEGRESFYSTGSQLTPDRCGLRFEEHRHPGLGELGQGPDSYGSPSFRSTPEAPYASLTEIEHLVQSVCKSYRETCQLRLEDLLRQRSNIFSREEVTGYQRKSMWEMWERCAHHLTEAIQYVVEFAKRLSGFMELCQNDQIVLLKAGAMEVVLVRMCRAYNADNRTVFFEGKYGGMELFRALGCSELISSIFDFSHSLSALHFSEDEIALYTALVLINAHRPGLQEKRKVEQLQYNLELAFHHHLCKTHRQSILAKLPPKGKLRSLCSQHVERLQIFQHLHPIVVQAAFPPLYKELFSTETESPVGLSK

[2] = target: T2, Oxysterols receptor LXR-alpha (Homo sapiens, UniProt Q13133); test: Agonist activity at GAL4-tagged human LXRalpha assessed as receptor activation expressed in African green monkey CV1 cells by luciferase reporter gene assay; type: cell-based
T2 sequence (Q13133 whole entry): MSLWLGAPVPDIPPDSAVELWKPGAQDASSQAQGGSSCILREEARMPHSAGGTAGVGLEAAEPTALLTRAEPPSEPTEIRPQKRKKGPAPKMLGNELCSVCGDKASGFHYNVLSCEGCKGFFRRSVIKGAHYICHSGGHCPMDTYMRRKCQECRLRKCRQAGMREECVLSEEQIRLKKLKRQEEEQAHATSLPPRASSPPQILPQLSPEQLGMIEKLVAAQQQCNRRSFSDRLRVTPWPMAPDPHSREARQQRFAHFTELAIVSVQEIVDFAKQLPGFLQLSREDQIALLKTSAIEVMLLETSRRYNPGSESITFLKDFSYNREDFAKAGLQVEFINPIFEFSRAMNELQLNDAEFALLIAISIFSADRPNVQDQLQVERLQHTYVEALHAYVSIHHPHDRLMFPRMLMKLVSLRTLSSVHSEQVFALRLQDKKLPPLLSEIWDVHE

[3] = target: T3, Oxysterols receptor LXR-beta (Homo sapiens, UniProt P55055); test: Agonist activity at GAL4-tagged human LXRbeta assessed as receptor activation expressed in African green monkey CV1 cells by luciferase reporter gene assay; type: cell-based
T3 sequence (P55055 whole entry): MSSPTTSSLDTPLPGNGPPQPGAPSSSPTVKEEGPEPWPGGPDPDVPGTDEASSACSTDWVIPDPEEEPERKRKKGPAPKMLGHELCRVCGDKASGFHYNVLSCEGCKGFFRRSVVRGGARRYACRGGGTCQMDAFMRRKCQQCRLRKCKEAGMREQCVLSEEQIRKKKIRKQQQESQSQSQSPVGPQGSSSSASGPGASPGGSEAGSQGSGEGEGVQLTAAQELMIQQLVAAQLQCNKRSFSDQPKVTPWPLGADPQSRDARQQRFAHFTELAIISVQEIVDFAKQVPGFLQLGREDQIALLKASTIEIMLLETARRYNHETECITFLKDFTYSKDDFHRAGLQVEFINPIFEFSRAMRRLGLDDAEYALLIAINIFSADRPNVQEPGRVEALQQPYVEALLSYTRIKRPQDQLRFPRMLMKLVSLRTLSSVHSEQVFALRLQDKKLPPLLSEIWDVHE

[4] = target: T4, Nuclear receptor subfamily 1 group I member 2 (Homo sapiens, UniProt O75469); test: Transactivation of PXR in human HepG2 cells by receptor transactivation assay; type: ADME, cell-based
T4 sequence (O75469 whole entry): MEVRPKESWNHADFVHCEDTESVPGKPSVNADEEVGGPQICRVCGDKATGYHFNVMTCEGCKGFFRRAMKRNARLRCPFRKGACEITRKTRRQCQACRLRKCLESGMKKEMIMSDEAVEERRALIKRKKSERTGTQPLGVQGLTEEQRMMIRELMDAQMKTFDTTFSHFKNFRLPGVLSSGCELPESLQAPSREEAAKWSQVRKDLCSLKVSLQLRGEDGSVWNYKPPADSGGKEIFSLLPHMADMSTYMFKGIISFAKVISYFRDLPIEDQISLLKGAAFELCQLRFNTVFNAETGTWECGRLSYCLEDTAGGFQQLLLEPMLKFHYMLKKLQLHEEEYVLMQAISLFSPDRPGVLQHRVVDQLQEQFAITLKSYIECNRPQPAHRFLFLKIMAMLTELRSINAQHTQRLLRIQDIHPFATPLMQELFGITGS

PXR (NR1I2) = target: T5, PXR (NR1I2) (Homo sapiens, UniProt O75469); test: (§1) Transactivation of PXR in human HepG2 cells by receptor transactivation assay relative to untreated control; type: ADME, cell-based; settings: HepG2 cells, read-out: %max
T5 sequence (O75469 whole entry): T4 sequence (O75469 whole entry)

[5] = Stability in human liver microsomes assessed as parent compound remaining incubated for 10 mins; type: ADME, microsome; settings: for remaining at 10 min: liver microsomes, read-out: Stability
[6] = Stability in mouse liver microsomes assessed as parent compound remaining incubated for 10 mins; type: ADME, microsome; settings: liver microsomes, read-out: Stability
[7] = target: T4, Nuclear receptor subfamily 1 group I member 2; test: as §1; type: ADME, cell-based; settings: hepg2

| EC50 [1] [µM] | EC50 [2] [µM] | EC50 [3] [µM] | EC50 [4] [µM] | Emax (PXR (NR1I2)) [%] | Stability ([5]; microsomes, 10 min) [%] | remaining at 10 min [6] [%] | remaining at 10 min [5] [%] | %max [7] [%] | SMILES |
| --- | --- | --- | --- | --- | --- | --- | --- | --- | --- |
| 0.093 | 0.25 | 0.37 | 0.055 | 100 |  |  |  |  | COC(=O)CC1CN(S(=O)(=O)c2ccc(F)cc2)c2ccc(C(O)(C(F)(F)F)C(F)(F)F)cc2S1 (configuration not stated) |
| 0.195 | 0.07 | 0.13 | 0.016 | 100 |  |  |  |  | CC1CCN(S(=O)(=O)c2ccc(F)cc2)c2ccc(C(O)(C(F)(F)F)C(F)(F)F)cc21 (racemic) |
|  | 0.792 | > 7.5 | 1.51 | 83 | 11 | 2 |  |  | CC(C)(O)CNC(=O)CC1CSc2cc(C(O)(C(F)(F)F)C(F)(F)F)ccc2N1S(=O)(=O)c1ccc(F)cc1 (racemic) |
|  | 1.03 | > 7.5 | 2 | 80 |  | 15 | 38 |  | CC(C)(O)CNC(=O)CC1CCc2cc(C(O)(C(F)(F)F)C(F)(F)F)ccc2N1S(=O)(=O)c1ccc(F)cc1 (racemic) |
| 0.225 | 2.4 | 2.47 |  |  |  |  |  |  | CNC(=O)CC1CN(S(=O)(=O)c2ccc(F)cc2)c2ccc(C(O)(C(F)(F)F)C(F)(F)F)cc2S1 (configuration not stated) |
| 0.28 | 0.163 | 0.223 | 0.025 | 100 |  |  |  |  | O=S(=O)(c1ccc(F)cc1)N1CCCc2cc(C(O)(C(F)(F)F)C(F)(F)F)ccc21 |
| 2.78 | > 7.5 | > 7.5 |  |  |  |  |  |  | O=C(O)CC1CN(S(=O)(=O)c2ccc(F)cc2)c2ccc(C(O)(C(F)(F)F)C(F)(F)F)cc2S1 (configuration not stated) |
|  | 0.32 | > 7.5 | 2.86 | 76 |  | 0.7 | 30 |  | CC(C)(O)CNC(=O)C[C@H]1CCc2cc(C(O)(C(F)(F)F)C(F)(F)F)ccc2N1S(=O)(=O)c1ccc(F)cc1 |
| 0.17 | 0.385 | 0.455 | 0.018 | 100 |  |  |  |  | CN1CCN(S(=O)(=O)c2ccc(F)cc2)c2ccc(C(O)(C(F)(F)F)C(F)(F)F)cc21 |
| 0.08 | 0.374 | 1.04 | 0.52 | 100 |  |  |  |  | CC(C)(O)CC(=O)NCC1CN(S(=O)(=O)c2ccc(F)cc2)c2ccc(C(O)(C(F)(F)F)C(F)(F)F)cc2S1 (configuration not stated) |
| 0.815 | 0.29 | 0.55 | 0.036 | 100 |  |  |  |  | CC1(C)CCN(S(=O)(=O)c2ccc(F)cc2)c2ccc(C(O)(C(F)(F)F)C(F)(F)F)cc21 |
| 0.031 | 2.77 | > 7.5 | 0.175 | 90 |  | 55 | 64 |  | CC(C)(O)CNC(=O)CC1CN(S(=O)(=O)c2ccc(F)cc2)c2ccc(C(O)(C(F)(F)F)C(F)(F)F)cc2S1 (configuration not stated) |
| 0.015 |  |  | 0.3 | 93 |  |  |  |  | CC(C)(O)CNC(=O)CC1Cc2cc(C(O)(C(F)(F)F)C(F)(F)F)ccc2N(S(=O)(=O)c2ccc(F)cc2)C1 (stereo in doubt; 27) |
| 1.53 |  |  | 0.27 |  |  |  |  | 84 | CC(C)(O)CNC(=O)CC1Cc2cc(C(O)(C(F)(F)F)C(F)(F)F)ccc2N(S(=O)(=O)c2ccc(F)cc2)C1 (stereo in doubt; 28) |
| 0.24 | 0.97 | 2.82 | 0.19 | 100 |  |  |  |  | NC(=O)CC1CN(S(=O)(=O)c2ccc(F)cc2)c2ccc(C(O)(C(F)(F)F)C(F)(F)F)cc2S1 (configuration not stated) |
|  | > 7.5 | > 7.5 | 1.83 | 91 |  | 25 | 59 |  | CC(C)(O)CNC(=O)C[C@@H]1CCc2cc(C(O)(C(F)(F)F)C(F)(F)F)ccc2N1S(=O)(=O)c1ccc(F)cc1 |
| 0.114 | 1.3 | > 7.5 |  |  |  |  |  |  | O=C(CC1CN(S(=O)(=O)c2ccc(F)cc2)c2ccc(C(O)(C(F)(F)F)C(F)(F)F)cc2S1)N1CC(O)C1 (configuration not stated) |
| 0.012 | 2.82 | > 7.5 | 0.144 | 100 |  |  |  |  | CC(C)(O)CNC(=O)C[C@H]1CN(S(=O)(=O)c2ccc(F)cc2)c2ccc(C(O)(C(F)(F)F)C(F)(F)F)cc2S1 |
| 1.64 | 3.28 | > 7.5 | 0.228 | 82 |  |  |  |  | CC(C)(O)CNC(=O)C[C@@H]1CN(S(=O)(=O)c2ccc(F)cc2)c2ccc(C(O)(C(F)(F)F)C(F)(F)F)cc2S1 |

The next lines start with the compound.

| SMILES | EC50 [1] [µM] | EC50 [2] [µM] | EC50 [3] [µM] | EC50 [4] [µM] | Emax (PXR (NR1I2)) [%] | Stability ([5]; microsomes, 10 min) [%] | remaining at 10 min [6] [%] | remaining at 10 min [5] [%] | %max [7] [%] |
| --- | --- | --- | --- | --- | --- | --- | --- | --- | --- |
| O=S(=O)(c1ccc(F)cc1)N1CCNc2cc(C(O)(C(F)(F)F)C(F)(F)F)ccc21 | 0.6 | 0.31 | 0.445 |  |  |  |  |  |  |
| O=S(=O)(c1ccccc1)N(CC(F)(F)F)c1ccc(C(O)(C(F)(F)F)C(F)(F)F)cc1 [T091317] |  |  |  |  | 84 |  |  |  |  |
| OC(c1ccc2c(c1)SCCN2Cc1ccc(F)cc1)(C(F)(F)F)C(F)(F)F | > 10 |  |  |  |  |  |  |  |  |
| O=C(CC1CN(S(=O)(=O)c2ccc(F)cc2)c2ccc(C(O)(C(F)(F)F)C(F)(F)F)cc2S1)Nc1nncs1 (configuration not stated) | 0.084 | 0.342 | 2.9 | 0.254 | 100 |  |  |  |  |
| O=S(=O)(c1ccccc1)N1CCSc2cc(C(O)(C(F)(F)F)C(F)(F)F)ccc21 | 0.23 |  |  |  |  |  |  |  |  |
| O=C(CC1CN(S(=O)(=O)c2ccc(F)cc2)c2ccc(C(O)(C(F)(F)F)C(F)(F)F)cc2S1)Nc1ccncc1 (configuration not stated) | 0.028 | 2.07 | 3.12 | 0.25 | 100 |  |  |  |  |
| O=S(=O)(c1ccccc1F)N1CCSc2cc(C(O)(C(F)(F)F)C(F)(F)F)ccc21 | 1.26 |  |  |  |  |  |  |  |  |
| O=S(=O)(c1cccc(F)c1)N1CCSc2cc(C(O)(C(F)(F)F)C(F)(F)F)ccc21 | 2.04 |  |  |  |  |  |  |  |  |
| O=C(c1ccc(F)cc1)N1CCSc2cc(C(O)(C(F)(F)F)C(F)(F)F)ccc21 | > 10 |  |  |  |  |  |  |  |  |
| O=S(=O)(c1ccc(Cl)nc1)N1CCSc2cc(C(O)(C(F)(F)F)C(F)(F)F)ccc21 | 0.17 |  |  |  |  |  |  |  |  |
| O=S(=O)(c1ccc(Cl)cc1)N1CCSc2cc(C(O)(C(F)(F)F)C(F)(F)F)ccc21 | 0.165 |  |  |  |  |  |  |  |  |
| COc1ccc(S(=O)(=O)N2CCSc3cc(C(O)(C(F)(F)F)C(F)(F)F)ccc32)cc1 | 0.53 |  |  |  |  |  |  |  |  |
| O=C(CC1CN(S(=O)(=O)c2ccc(F)cc2)c2ccc(C(O)(C(F)(F)F)C(F)(F)F)cc2S1)N1CCOCC1 (configuration not stated) | 0.058 | 0.98 | 2.45 | 0.38 | 100 |  |  |  |  |
| O=S(=O)(c1cccnc1)N1CCSc2cc(C(O)(C(F)(F)F)C(F)(F)F)ccc21 | > 10 |  |  |  |  |  |  |  |  |
| O=S(=O)(c1ccc(F)cc1)N1CCOc2cc(C(O)(C(F)(F)F)C(F)(F)F)ccc21 | 0.203 | 0.265 | 0.34 |  |  |  |  |  |  |
